The values below come from patent US20230416205A1, “COMPOUNDS, COMPOSITIONS, AND METHODS” (Denali Therapeutics Inc, priority 2020, published 2023).

The experiment concerns NLRP3. As to the kind of experiment: IL-1β secretion assay in PMA-differentiated, LPS/nigericin-stimulated THP-1 cells (384-well, ELISA read-out). Format: cell-based, human. The procedure, abridged: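 Secreted IL-1β quantified by capture ELISA from supernatants of PMA-differentiated THP-1 cells (30K per well). Sequence: LPS 25 ng/mL priming 2 h, compound 1 h, nigericin 2 h; dose-responses normalized between high (LPS plus 5 μM nigericin) and low (LPS alone) controls.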
For orientation: ELISA stands for enzyme-linked immunosorbent assay.

[1] abbreviates: Homo sapiens, THP-1, IL-1β secretion, PMA-differentiated THP-1 cells, LPS then nigericin stimulation, ELISA read at 450 nm, read-out: Activity.
The mark [2] stands for this setting: Homo sapiens, THP-1, Table 4, IL-1β secretion, LPS/nigericin-stimulated THP-1 cells, read-out: IC50.
Where [3] appears, read: Table 4, IL-1β secretion, LPS/nigericin-stimulated THP-1 cells, read-out: IC50.

Like-named read-outs stand apart in the source and are kept apart here.

As to `Cc1nc2ccc(NC(=O)CN3CC4(CC4)c4cc(Br)ccc4C3=O)cc2s1` [Example 143, 2-(6-bromo-1-oxospiro[3H-isoquinoline-4,1′-cyclopropane]-2-yl)-N-(2-methyl-1,3-benzothiazol-6-yl)acetamide], the IC50 by setting is: under setting [1], below 10 µM; under setting [2], 1.41 µM.
For `O=C(CN1CC2(CC2)c2c(ccc(C3CC3)c2F)C1=O)Nc1ncc(F)cn1` [Example 100, 2-(6-cyclopropyl-5-fluoro-1-oxospiro[3H-isoquinoline-4,1′-cyclopropane]-2-yl)-N-(5-fluoropyrimidin-2-yl)acetamide] the same measures were below 10 µM and 0.114 µM.
For `N#Cc1cnc(NC(=O)CN2C[C@]3(C[C@H]3F)c3cc(Br)ccc3C2=O)nc1` [Example 272] the same measures were below 10 µM and 0.014 µM.
As to `O=C(CN1CC2(CC2)c2cc(Br)ccc2C1=O)N[C@@H]1C[C@@H]2CC[C@H]1O2` [Example 16, 2-(6-bromo-1-oxospiro[3H-isoquinoline-4,1′-cyclopropane]-2-yl)-N-[(1R,2R,4S)-7-oxabicyclo[2.2.1]heptan-2-yl]acetamide], the IC50 by setting is: under setting [1], below 10 µM; under setting [2], 9.83 µM.
Turning to `Cn1nc(NC(=O)CN2CC3(CC3)c3cc(Br)ccc3C2=O)ccc1=O` [Example 335, 2-(6-bromo-1-oxospiro[3H-isoquinoline-4,1′-cyclopropane]-2-yl)-N-(1-methyl-6-oxopyridazin-3-yl)acetamide], under setting [2], the IC50 was determined as 2.08 µM.
Consider `O=C(CN1CC2(CC2)c2cc(Br)ccc2C1=O)NC1CCN(c2cccnn2)CC1` [Example 387, 2-(6-bromo-1-oxospiro[3H-isoquinoline-4,1′-cyclopropane]-2-yl)-N-(1-pyridazin-3-ylpiperidin-4-yl)acetamide], for which, under setting [2], the IC50 stood at 5.29 µM.
In the case of `O=C(CN1CC2(CC2)c2cc(Br)ccc2C1=O)Nc1ncn(C2CC2)n1` [Example 422, 2-(6-bromo-1-oxospiro[3H-isoquinoline-4,1′-cyclopropane]-2-yl)-N-(1-cyclopropyl-1,2,4-triazol-3-yl)acetamide], the IC50 under setting [2] was found to be 3.08 µM.
On the same count and under the same terms, under `Cc1c(NC(=O)CN2CC3(CC3)c3cc(Br)ccc3C2=O)nn2ccccc12` [Example 402, 2-(6-bromo-1-oxospiro[3H-isoquinoline-4,1′-cyclopropane]-2-yl)-N-(3-methylpyrazolo[1,5-a]pyridin-2-yl)acetamide] stands 9.27 µM.
For the compound `Cn1cc(N2CCC(NC(=O)CN3CC4(CC4)c4cc(Br)ccc4C3=O)C2)cn1` (stereo not drawn) [Example 416, 2-(6-bromo-1-oxospiro[3H-isoquinoline-4,1′-cyclopropane]-2-yl)-N-[1-(1-methylpyrazol-4-yl)pyrrolidin-3-yl]acetamide], the IC50 under setting [2] stood at 20.8 µM.
In the case of `O=C(CN1CC2(CC2)c2cc(Br)ccc2C1=O)Nc1ccc2cnccc2c1` [Example 136, 2-(6-bromo-1-oxospiro[3H-isoquinoline-4,1′-cyclopropane]-2-yl)-N-isoquinolin-6-ylacetamide], under setting [1], the IC50 is below 10 µM.
`N#C[C@H]1C[C@@]12CN(CC(=O)Nc1ncc(F)cn1)C(=O)c1ccc(Br)cc12` (single isomer, unassigned) [Example 286, 2-[(2′s,4r)-6-bromo-2′-cyano-1-oxospiro[3H-isoquinoline-4,1′-cyclopropane]-2-yl]-N-(5-fluoropyrimidin-2-yl)acetamide]: the IC50 was below 10 µM under setting [1] and 1.95 µM under setting [3].
Consider `Cc1nc(NC(=O)CN2CC3(CC3)c3cc(Br)ccc3C2=O)nn1C` [Example 376, 2-(6-bromo-1-oxospiro[3H-isoquinoline-4,1′-cyclopropane]-2-yl)-N-(1,5-dimethyl-1,2,4-triazol-3-yl)acetamide], for which the IC50 under setting [2] stood at 1.83 µM.
As to `O=C(CN1CC2(CC2)c2cc(Br)ccc2C1=O)Nc1ccc2nc[nH]c2c1` [Example 169, N-(3H-benzimidazol-5-yl)-2-(6-bromo-1-oxospiro[3H-isoquinoline-4,1′-cyclopropane]-2-yl)acetamide], the IC50 was below 10 µM under setting [1] and 0.605 µM under setting [2].
For `O=C(CN1C[C@]2(C[C@H]2F)c2cc(C3CC3)ccc2C1=O)Nc1ncc(F)cn1` [Example 231] the same measures were below 10 µM and 0.05 µM.
`O=C(CN1CC2(CC2)c2cc(C3COC3)ccc2C1=O)Nc1ncc(F)cn1` [Example 336, N-(5-fluoropyrimidin-2-yl)-2-[6-(oxetan-3-yl)-1-oxospiro[3H-isoquinoline-4,1′-cyclopropane]-2-yl]acetamide]: the IC50 under setting [2] came to 23.2 µM.
On to `CN(C(=O)CN1CC2(CC2)c2cc(Br)ccc2C1=O)C1CC(C)(O)C1` (stereo not drawn) [Example 342, 2-(6-bromo-1-oxospiro[3H-isoquinoline-4,1′-cyclopropane]-2-yl)-N-(3-cis-hydroxy-3-methylcyclobutyl)-N-methylacetamide], for which the IC50 under setting [2] amounted to 17.1 µM.
In the case of `O=C(CN1CC2(CC2)c2cc(Br)ccc2C1=O)Nc1cc2ccccn2n1` [Example 383], under setting [2], the IC50 turned out to be 1.23 µM.
`O=C(CN1CC2(CC2)c2cc(Br)ccc2C1=O)NC12CC(C(F)(F)F)(C1)C2` [Example 13, 2-(6-bromo-1-oxospiro[3H-isoquinoline-4,1′-cyclopropane]-2-yl)-N-[3-(trifluoromethyl)-1-bicyclo[1.1.1]pentanyl]acetamide]: the IC50 by setting is: under setting [1], below 10 µM; under setting [2], 1.75 µM.
Regarding `O=C(CN1CC2(CC2)c2c(ccc(OC(F)F)c2F)C1=O)Nc1ncc(F)cn1` [Example 310, 2-[6-(difluoromethoxy)-5-fluoro-1-oxospiro[3H-isoquinoline-4,1′-cyclopropane]-2-yl]-N-(5-fluoropyrimidin-2-yl)acetamide], the IC50 under setting [2] amounted to 1.06 µM.
Consider `O=C(CN1CC2(CC2)c2cc(Br)ccc2C1=O)Nc1ccc2ncsc2c1` [Example 140, N-(1,3-benzothiazol-6-yl)-2-(6-bromo-1-oxospiro[3H-isoquinoline-4,1′-cyclopropane]-2-yl)acetamide], for which the IC50 is, setting by setting: under setting [1], below 10 µM; under setting [2], 0.889 µM.
For `CC(C)(C#N)NC(=O)CN1CC2(CC2)c2cc(Br)ccc2C1=O` [Example 134, 2-(6-bromo-1-oxospiro[3H-isoquinoline-4,1′-cyclopropane]-2-yl)-N-(2-cyanopropan-2-yl)acetamide], under setting [1], the IC50 was above 15 µM.
Consider `O=C(CN1CC2(CC2)c2cc(Br)ccc2C1=O)Nc1cccc2ncccc12` [Example 162, 2-(6-bromo-1-oxospiro[3H-isoquinoline-4,1′-cyclopropane]-2-yl)-N-quinolin-5-ylacetamide], for which the IC50 was below 10 µM under setting [1] and 3.54 µM under setting [2].
`O=C(CN1CC2(CC2)c2cc(Br)ccc2C1=S)Nc1ncc(F)cn1` [Example 102, 2-(6-bromo-1-sulfanylidenespiro[3H-isoquinoline-4,1′-cyclopropane]-2-yl)-N-(5-fluoropyrimidin-2-yl)acetamide]: the IC50 is, setting by setting: under setting [1], below 10 µM; under setting [2], 0.169 µM.
On to `Cc1nc(NC(=O)CN2CC3(CC3)c3cc(Br)ccc3C2=O)ncc1C#N` [Example 259, 2-(6-bromo-1-oxospiro[3H-isoquinoline-4,1′-cyclopropane]-2-yl)-N-(5-cyano-4-methylpyrimidin-2-yl)acetamide], for which the IC50 under setting [1] was below 10 µM and the IC50 under setting [2] came out at 0.437 µM.
As to `O=C(CN1CC2(CC2)c2cc(Br)ccc2C1=O)NC1CC(OCc2ccccc2)C1` (stereo not drawn) [Example 357, 2-(6-bromo-1-oxospiro[3H-isoquinoline-4,1′-cyclopropane]-2-yl)-N-(3-trans-phenylmethoxycyclobutyl)acetamide], the IC50 under setting [2] amounted to 5.21 µM.
For the compound `O=C(CN1CC2(CC2)c2cc(C3CCC3)ccc2C1=O)Nc1ncc(F)cn1` [Example 87, 2-(6-cyclobutyl-1-oxospiro[3H-isoquinoline-4,1′-cyclopropane]-2-yl)-N-(5-fluoropyrimidin-2-yl)acetamide], the IC50 reads like this: under setting [1], below 10 µM; under setting [2], 5.39 µM.
For `O=C(CN1CC2(CC2)c2cc(Br)ccc2C1=O)Nc1ccc2cn[nH]c2c1` [Example 43, 2-(6-bromo-1-oxo-spiro[3H-isoquinoline-4,1′-cyclopropane]-2-yl)-N-(1H-indazol-6-yl)acetamide], the IC50 under setting [1] was below 10 µM and the IC50 under setting [2] is 0.368 µM.
As to `CC1(C(F)(F)F)CN(CC(=O)Nc2ncc(F)cn2)C(=O)c2c(Br)cccc21` (stereo not drawn) [Example 344, 2-[8-bromo-4-methyl-1-oxo-4-(trifluoromethyl)-3H-isoquinolin-2-yl]-N-(5-fluoropyrimidin-2-yl)acetamide], the IC50 under setting [2] amounted to 27.6 µM.
On to `O=C(CN1C[C@@]2(C[C@@H]2Cl)c2cc(Br)ccc2C1=O)Nc1ncc(F)cn1` (single isomer, unassigned) [Example 284, 2-[(2′r,4s)-6-bromo-2′-chloro-1-oxospiro[3H-isoquinoline-4,1′-cyclopropane]-2-yl]-N-(5-fluoropyrimidin-2-yl)acetamide], for which the IC50 is below 10 µM (IL-1β secretion, PMA-differentiated THP-1 cells, LPS then nigericin stimulation, ELISA read at 450 nm, read-out: Activity) and 0.05 µM under setting [3].
In the case of `N#CC1(c2ccc3c(c2)C2(CC2)CN(CC(=O)Nc2ncc(F)cn2)C3=O)CC1` [Example 93, 2-[6-(1-cyanocyclopropyl)-1-oxospiro[3H-isoquinoline-4,1′-cyclopropane]-2-yl]-N-(5-fluoropyrimidin-2-yl)acetamide], the IC50 runs as follows: under setting [1], below 10 µM; under setting [2], 2.28 µM.
Take `O=C(CN1CC2(CC2)c2cc(Br)ccc2C1=O)Nc1nccc2nccn12` [Example 363, 2-(6-bromo-1-oxospiro[3H-isoquinoline-4,1′-cyclopropane]-2-yl)-N-imidazo[1,2-c]pyrimidin-5-ylacetamide]: the IC50 under setting [2] worked out at 6.58 µM.
Same read-out and setting: as for `Cc1c(C#N)cnc(NC(=O)CN2CC3(CC3)c3cc(Br)ccc3C2=O)c1F` [Example 389, 2-(6-bromo-1-oxospiro[3H-isoquinoline-4,1′-cyclopropane]-2-yl)-N-(5-cyano-3-fluoro-4-methylpyridin-2-yl)acetamide], the figure is 0.546 µM.
